From patent publication US9371337B2, “β-lactamase inhibitors” (The Regents of the University of California, priority 2011, dated 2016)

Tests used:
AmpC β-lactamase [1] = biological target: T1, AmpC β-lactamase (Escherichia coli, UniProt P00811); assay: biochemical; format: biochemical
T1 construct: made in house
Procedure: FIG. 18. Representative IC50 curves. […] IC50 curves were obtained by measuring rates (in duplicates) at different inhibitor concentrations (x-axis) and by determining the residual activity (y-axis, in percentage). IC50 values were determined by non-linear regression and Ki values calculated using GraphPad software assuming competitive inhibition.
Sulfonamidomethaneboronic acids were dissolved in 100% DMSO at a concentration of 100 mM; more diluted stocks were prepared as necessary. […] The enzyme was expressed and purified as described (Usher, K. C. et al., Biochemistry 1998, 37, 16082-16092) and CENTA was purchased from Tydock Pharma.
Kinetic measurements were run at room temperature in 50 mM sodium-cacodylate pH 6.5 in the presence of 0.01% Triton-X to prevent non-specific inhibition via compound aggregation. […] (Kettner, C. A. and Shenvi, A. B., J. Biol. Chem. 1984, 259, 15106-15114) Reactions were performed in 1 mL cuvettes with 60 μM CENTA and initiated by adding 1.2 nM enzyme. […] (Weston, G. S. et al., J. Med. Chem. 1998, 41, 4577-4586) The first 180 sec of each reaction were used to measure initial rates. IC50 values were obtained by fitting binding data to a sigmoidal dose-response equation using GraphPad Prism (GraphPad software, Inc). Ki values were determined by the use of Cheng-Prusoff equation. (Cheng, Y. and Prusoff, W. H., Biochem. Pharmacol. 1973, 22, 3099-3108)

CTX-M-9 β-lactamase = CTX-M-9 β-lactamase (Escherichia coli, UniProt Q9L5C8); assay: biochemical; format: biochemical; details: for Ki: Table 8, read-out: Ki vs CTX-M-9; for potency estimated from few doses: read-out: IC50 (Estimated from single concentration measurement); for inhibition at 16 µM: read-out: Percentage inhibition with 16 μM inhibitor
Procedure: Reactions were initiated by the addition of 0.3 nM enzyme and monitored at 405 nm.
(§1) To assess the selectivity of the new molecules we determined Ki values against three common serine proteases, Trypsin, Elastase and α-Chymotrypsin, as well as that of a class A β-lactamase, CTX-M-9 (Table 10) (Pouvreau L, et al. (1998), FEBS Lett 423:167-172; Del Mar E G, et al. (1980), Biochemistry 19:468-472; Rodriguez-Martinez J A, et al. (2009), Biotechnol Lett 31:883-887; Chen Y, et al. (2005), J Mol Biol 348:349-362).

[2] = biological target: T2, α-chymotrypsin (bovine pancreatic) (Bos taurus, UniProt P00766); assay: α-Chymotrypsin inhibition; format: biochemical; details: for activity at 100 µM: Table 4b, 100 μM inhibitor, read-out: Percentage activity with 100 μM inhibitor; for potency estimated from few doses: Table 4e, read-out: IC50 (Estimated from single concentration measurement); for Ki: Table 10, α-Chymotrypsin; for inhibition at 100 µM: read-out: Percentage inhibition with 100 μM inhibitor
T2 construct: purchased Sigma-Aldrich
Procedure: α-Chymotrypsin assays were performed in 50 mM Tris buffer pH 7.5 with 0.01% Triton-X. Inhibitor and 0.001 mg/mL enzyme were incubated at their final concentration for 10 min before the reaction was initiated by the addition of 200 μM N-succinyl-Ala-Ala-Pro-Phe p-nitroanilide and monitored at 410 nm.
as §1

Trypsin [3] = biological target: T3, Trypsin (UniProt P00760); assay: Trypsin inhibition; format: biochemical; details: Table 10, Trypsin
T3 construct: IC50 (Estimated from single concentration measurement); Ki
T3 sequence (P00760 1-246): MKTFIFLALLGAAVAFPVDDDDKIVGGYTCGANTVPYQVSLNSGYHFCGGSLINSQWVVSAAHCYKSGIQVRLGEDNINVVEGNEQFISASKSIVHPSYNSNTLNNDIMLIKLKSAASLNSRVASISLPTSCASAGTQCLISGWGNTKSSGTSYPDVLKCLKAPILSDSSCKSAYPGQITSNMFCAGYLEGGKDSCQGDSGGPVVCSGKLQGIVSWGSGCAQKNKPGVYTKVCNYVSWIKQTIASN
Source text: as §1

Elastase = Elastase inhibition; format: biochemical; details: Table 4h, Elastase vs AmpC
Source text: as §1

[4] = test system: clinical strains resistant to third-generation cephalosporins; assay: MIC distribution of third-generation cephalosporins alone or with compounds over clinical strains; format: cell-based; details: for clinical isolates for which MICs dropped into the susceptible range (MICs≦1 μg/mL): cephalosporins combined with the compound; for MIC 25% percentile / MIC 75% percentile: third-generation cephalosporins in combination with the compound
Procedure: The anti-resistance activity of inhibitors was investigated by the determination of the minimum inhibitory concentrations (MICs) of the β-lactam/inhibitor combination necessary to inhibit the growth of clinically-isolated bacteria resistant to third-generation cephalosporins via expression of class A or class C β-lactamases (Table 6).
Susceptibility testing was performed and interpreted following the guidelines of CLSI. (Clinical and Laboratory Standards Institute, Performance standards for antimicrobial susceptibility testing, 20th Informational Supplement, M100-S20 2010) The compounds were dissolved in 50% DMSO, and dilutions were performed using Muller-Hinton medium. An adequate final concentration was obtained to determine the minimum inhibitory concentrations (MICs). The concentration of DMSO was maintained below 5%. The inhibitors were tested for synergy with the third-generation β-lactams ceftazidime and cefotaxime against several clinical bacteria. The ratio of β-lactams to inhibitors was 1:4. Each value reported reflects the average of three independent experiments. […] The Friedman's test and the Wilcoxon signed rank test were used to compare MIC values. Statistical significance was established at p<0.05.

AmpC β-lactamase [5] = biological target: T1, AmpC β-lactamase; format: biochemical; details: for type of inhibition: Lineweaver-Burk analysis, competition with substrate CENTA; for time dependence of inhibition (incubation effect, off-rate): enzyme incubation and dilution experiments
Trypsin [6] = biological target: T3, Trypsin; assay: Trypsin inhibition; format: biochemical; details: for Percentage activity with 100 μM inhibitor: Table 4b; for Percentage inhibition with 100 μM inhibitor: Table 4c; for potency estimated from few doses: read-out: IC50 (Estimated from single concentration measurement), Table 4e
Trypsin [7] = assay: Trypsin inhibition; format: biochemical; details: Table 4h, Trypsin vs AmpC
[8] = test system: K. pneumoniae and E. cloacae strains in which AmpC expression is inducible; assay: β-lactamase induction experiments (disk potentiation of ceftazidime); format: cell-based, Klebsiella pneumoniae; Enterobacter cloacae; details: 64 μg of compounds or 32 μg cefoxitin per disk, ceftazidime disk 30 μg
Source text: FIG. 9. Inhibition of bacterial growth and potentiation effect. A) Activity of compounds 4 (CP4) and 9 (CP9) in combination with ceftazidime (CAZ) and alone against a Klebsiella pneumoniae strain producing AmpC β-lactamase. Solvent (SOL):DMSO/Water 1:1. B) Potentiation of β-lactamase inhibition in an E. cloacae strain in which ampC gene expression is inducible by β-lactam antibiotics, such as cefoxitin (FOX). C) Potentiation of β-lactamase inhibition in a Klebsiella pneumoniae isolate producing the inducible class C enzyme DHA-1.
A traditional β-lactam resistance mechanism is the upregulation of β-lactamase-encoding gene transcription caused by β-lactams such as cefoxitin and the β-lactamase inhibitor clavulanate. To test the role of compounds on the induction of AmpC expression, we investigated their ability to potentiate the action of the β-lactam ceftazidime. We compared the potentiation effect of compounds with that of cefoxitin (FIGS. 9B and 9C). Agar plates were inoculated with K. pneumoniae and E. cloacae strains in which AmpC expression is inducible. A ceftazidime-containing disk and a disk containing the inhibitors (cefoxitin or compounds 4 and 9) were placed on each plate. As ceftazidime diffuses from disks into the agar, a clear zone is created around the ceftazidime-containing disk, indicating where bacteria are unable to grow. The shape of this halo in the vicinity of the inhibitor-containing disk indicated the effect of these compounds on the induction of AmpC. The inhibition halos normally surrounding ceftazidime were substantially diminished in the regions nearest to the cefoxitin disk.
For the β-lactamase induction experiments, plates of Mueller Hinton agar were inoculated with two clinical strains (E. cloacae and K. pneumoniae) in which production of AmpC-type enzyme is inducible by β-lactam antibiotics. Inhibitors were added to blank disks, and the final content of inhibitor per disk was 64 μg of compounds and 32 μg cefoxitin. Disks of ceftazidime contained 30 μg of antibiotic.

[9] = Ki (from multi- or single concentration measurements), Table 4g

Sequence of CTX-M-9 β-lactamase (Q9L5C8 29-291): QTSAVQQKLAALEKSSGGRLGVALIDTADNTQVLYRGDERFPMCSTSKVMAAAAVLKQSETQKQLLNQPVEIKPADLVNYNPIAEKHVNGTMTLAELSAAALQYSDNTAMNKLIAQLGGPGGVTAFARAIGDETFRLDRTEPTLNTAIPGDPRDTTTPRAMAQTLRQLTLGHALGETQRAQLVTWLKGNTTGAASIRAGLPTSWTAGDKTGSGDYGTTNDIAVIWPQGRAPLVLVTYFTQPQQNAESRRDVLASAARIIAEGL
T1 sequence (P00811 20-377): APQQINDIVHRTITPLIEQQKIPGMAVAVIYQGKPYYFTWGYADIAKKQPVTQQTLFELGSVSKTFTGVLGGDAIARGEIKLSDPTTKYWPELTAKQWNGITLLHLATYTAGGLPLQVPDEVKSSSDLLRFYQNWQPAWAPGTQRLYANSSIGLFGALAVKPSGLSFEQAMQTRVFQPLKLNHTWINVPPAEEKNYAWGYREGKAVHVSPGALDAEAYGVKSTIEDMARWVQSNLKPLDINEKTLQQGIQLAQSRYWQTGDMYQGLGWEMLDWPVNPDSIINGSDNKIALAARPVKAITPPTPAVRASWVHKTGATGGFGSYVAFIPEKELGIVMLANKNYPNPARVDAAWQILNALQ

Row | SMILES | IC50 (AmpC β-lactamase [1]) [µM] | Ki (AmpC β-lactamase [1]; [9]) [µM] | Ki (AmpC β-lactamase [1]; Ki Vs AmpC, Table 7) [µM] | Ki (AmpC β-lactamase [1]; Ki vs AmpC, Table 8) [µM] | Ki (AmpC β-lactamase [1]; Ki, Table 5) [µM] | Ki (AmpC β-lactamase [1]; Ki, Table 10, AmpC) [µM] | Ligand efficiency (AmpC β-lactamase [1]; Table 5) | IC50 (CTX-M-9 β-lactamase) [µM] | Ki (CTX-M-9 β-lactamase) [µM] | potency estimated from few doses (CTX-M-9 β-lactamase) [µM] | inhibition at 16 µM (CTX-M-9 β-lactamase) [%] | activity at 100 µM [2] [%] | potency estimated from few doses [2] [µM] | Ki [2] [µM] | inhibition at 100 µM [2] [%] | Ki (Trypsin [3]) [µM] | clinical isolates for which MICs dropped into the susceptible range (MICs≦1 μg/mL) [4] [%] | MIC 25% percentile [4] [mg/L] | MIC 75% percentile [4] [mg/L] | melting point | other results
1 | O=S(=O)(NCB(O)O)c1ccc(-c2nn[nH]n2)cc1Cl [CR190, [2-chloro-4-(3-tetrazol-5-yl)benzensulfonylamino]methaneboronic acid] | 0.0016 | 0.0002 | 0.0002 | 0.0002 | 0.0002 | 0.0002 | 0.65 | 4 | 1.4 | 4 | 81 | 85 | 567 | 141 | 15 | 350 | 50 | 0.5 | 2.0 | 110 to 113 °C (dec.) | Ki (AmpC β-lactamase [1]; Ki, running text and FIG. 18, substrate CENTA 105 μM): 0.0002 µM; improved affinity compared to CR157 (AmpC β-lactamase [1]; ratio of Ki values): 6 fold; Selectivity vs AmpC (comparison of IC50 values) (CTX-M-9 β-lactamase; Table 4h, CTX-M-9 vs AmpC): 2346; Selectivity vs AmpC (comparison of IC50 values) ([2]; Table 4h, Chymotrypsin vs AmpC): 354167; Selectivity vs AmpC (comparison of IC50 values) (Elastase): 30784; type of inhibition (AmpC β-lactamase [5]): competitive; time dependence of inhibition (incubation effect, off-rate) (AmpC β-lactamase [5]): slow off-rate; Percentage activity with 100 μM inhibitor (Trypsin [6]): 95; Percentage inhibition with 100 μM inhibitor (Trypsin [6]): 5; potency estimated from few doses (Trypsin [6]): 1900 µM; Selectivity vs AmpC (comparison of IC50 values) (Trypsin [7]): 1187500
2 | O=S(=O)(NCB(O)O)c1ccc(-c2nn[nH]n2)c(Cl)c1 [CR191, [3-chloro-4-(3-tetrazol-5-yl)benzensulfonylamino]methaneboronic acid] | 0.0016 | 0.003 | 0.003 | 0.003 | 0.003 | 0.003 | 0.57 | 7 | 2.5 | 7 | 70 | 85 | 567 | 141 | 15 | 350 | 25 | 1.0 | 4.0 | 195 to 198 °C (dec.) | Ki (AmpC β-lactamase [1]; Ki): 0.003 µM; type of inhibition (AmpC β-lactamase [5]): competitive; time dependence of inhibition (incubation effect, off-rate) (AmpC β-lactamase [5]): slow off-rate; Percentage activity with 100 μM inhibitor (Trypsin [6]): 95; Percentage inhibition with 100 μM inhibitor (Trypsin [6]): 5; potency estimated from few doses (Trypsin [6]): 1900 µM
3 | CO[C@@]1(NC(=O)Cc2cccs2)C(=O)N2C(C(=O)O)=C(COC(N)=O)CS[C@@H]21 [cefoxitin, reference compound] |  |  |  |  |  |  |  |  |  |  |  |  |  |  |  |  |  |  |  |  | effect on the ceftazidime inhibition halo (induction of AmpC) [8]: antagonist picture
